pIC50: −log10 of the molar value. Residues, ends and D or L forms follow the SMILES beside them. No end group written: not given here. *: point of attachment. Carboxymethyl = O=C(O)C*
Columns and labels:
CD4+ T cells from PBMC = assay: IFN-γ ELISpot, PBMC-derived in vitro expanded CD4+ T cell lines; assay type: cell-based, human; settings: for T1D Donor T cell response / non-T1D Donor T cell response: PTM and unmodified native Pool Peptides (pool PTM 1), long peptides, PBMC T cell lines, responding donors/donors tested; for Recognition by IFN-γ-secreting CD4 T cells (ELISpot): expanded PBMCs from a T1D donor, PTM peptides and native parents
HLA-DRB1*03:01 = HLA-DRB1*03:01 (Homo sapiens, UniProt P01903+P01911, A100K/A102G/A103R/A169T/F55Y/I96L/K41T/L162R/M171V/P40S/Q125H/Q178H/Q39Y/R42S/S66N/T106N/T262R/W38E/Y61H); assay: Fluorescence polarization competition peptide binding assay, HLA-DRB1*03:01

Row | Compound | T1D Donor T cell response (CD4+ T cells from PBMC) | non-T1D Donor T cell response (CD4+ T cells from PBMC) | Recognition by IFN-γ-secreting CD4 T cells (ELISpot) (CD4+ T cells from PBMC) | pIC50 (HLA-DRB1*03:01)
1 | GSHLVEALYLVCGERGF [peptide 146] | 1/4 | 0/4 | recognized | 6.52 to 6.57
2 | CC(C)C[C@H](NC(=O)[C@H](C)NC(=O)[C@H](CCC(=O)O)NC(=O)[C@@H](NC(=O)[C@H](CC(C)C)NC(=O)[C@H](Cc1c[nH]cn1)NC(=O)[C@H](CO)NC(=O)CN)C(C)C)C(=O)N[C@@H](Cc1ccc(O)cc1)C(=O)N[C@@H](CC(C)C)C(=O)N[C@H](C(=O)N[C@@H](CSCC(=O)O)C(=O)NCC(=O)N[C@@H](CCC(=O)O)C(=O)N[C@@H](CCCNC(=N)N)C(=O)NCC(=O)N[C@@H](Cc1ccccc1)C(=O)O)C(C)C [peptide 146–1, GSHLVEALYLVXGERGF] (H-GSHLVEALYLVC(Carboxymethyl)GERGF-OH; N-terminus and C-terminus assumed) | 1/4 | 0/4 | recognized | 6.52 to 6.57
